Laboratory results taken from patent US9839639B2, “Neprilysin inhibitors” (THERAVANCE BIOPHARMA R&D IP, LLC, priority 2014, dated 2017).

Biological target: T1, human NEP (Homo sapiens, UniProt P08473)
T1 construct: purchased R&D Systems, Minneapolis, Minn; 1182-ZN
Test: In vitro enzyme inhibition assay, inhibitor potency at human NEP
Format: biochemical
Conditions: recombinant human NEP, fluorogenic peptide substrate 10 μM, 37° C.; values given as ranges
Experimental: The inhibitory activities of compounds at human and rat neprilysin (EC 3.4.24.11; NEP) and human angiotensin converting enzyme (ACE) were determined using in vitro assays as described below.
Recombinant human NEP and recombinant human ACE were obtained commercially (R&D Systems, Minneapolis, Minn., catalog numbers 1182-ZN and 929-ZN, respectively). The fluorogenic peptide substrate Mca-D-Arg-Arg-Leu-Dap-(Dnp)-OH (Medeiros et al. (1997) Braz. J. Med. Biol. Res. 30:1157-62; Anaspec, San Jose, Calif.) and Abz-Phe-Arg-Lys(Dnp)-Pro-OH (Araujo et al. (2000) Biochemistry 39:8519-8525; Bachem, Torrance, Calif.) were used in the NEP and ACE assays respectively.
The assays were performed in 384-well white opaque plates at 37° C. using the fluorogenic peptide substrates at a concentration of 10 μM in Assay Buffer (NEP: 50 mM HEPES, pH 7.5, 100 mM NaCl, 0.01% polyethylene glycol sorbitan monolaurate (Tween-20), 10 μM ZnSO4; ACE: 50 mM HEPES, pH 7.5, 100 mM NaCl, 0.01% Tween-20, 1 μM ZnSO4).
Test compounds were assayed over the range of concentrations from 10 μM to 20 pM. Test compounds were added to the enzymes and incubated for 30 minute at 37° C. prior to initiating the reaction by the addition of substrate. Reactions were terminated after 20 minutes of incubation at 37° C. by the addition of glacial acetic acid to a final concentration of 3.6% (v/v).
Plates were read on a fluorometer with excitation and emission wavelengths set to 320 nm and 405 nm, respectively. Inhibition constants were obtained by nonlinear regression of the data using the equation (GraphPad Software, Inc., San Diego, Calif.): v=v0/[1+(I/K′)] where v is the reaction rate, v0 is the uninhibited reaction rate, I is the inhibitor concentration and K′ is the apparent inhibition constant.
Compounds of the invention were tested in this assay and found to have pKi values at human NEP as follows.

T1 sequence (P08473 52-750 limits assumed): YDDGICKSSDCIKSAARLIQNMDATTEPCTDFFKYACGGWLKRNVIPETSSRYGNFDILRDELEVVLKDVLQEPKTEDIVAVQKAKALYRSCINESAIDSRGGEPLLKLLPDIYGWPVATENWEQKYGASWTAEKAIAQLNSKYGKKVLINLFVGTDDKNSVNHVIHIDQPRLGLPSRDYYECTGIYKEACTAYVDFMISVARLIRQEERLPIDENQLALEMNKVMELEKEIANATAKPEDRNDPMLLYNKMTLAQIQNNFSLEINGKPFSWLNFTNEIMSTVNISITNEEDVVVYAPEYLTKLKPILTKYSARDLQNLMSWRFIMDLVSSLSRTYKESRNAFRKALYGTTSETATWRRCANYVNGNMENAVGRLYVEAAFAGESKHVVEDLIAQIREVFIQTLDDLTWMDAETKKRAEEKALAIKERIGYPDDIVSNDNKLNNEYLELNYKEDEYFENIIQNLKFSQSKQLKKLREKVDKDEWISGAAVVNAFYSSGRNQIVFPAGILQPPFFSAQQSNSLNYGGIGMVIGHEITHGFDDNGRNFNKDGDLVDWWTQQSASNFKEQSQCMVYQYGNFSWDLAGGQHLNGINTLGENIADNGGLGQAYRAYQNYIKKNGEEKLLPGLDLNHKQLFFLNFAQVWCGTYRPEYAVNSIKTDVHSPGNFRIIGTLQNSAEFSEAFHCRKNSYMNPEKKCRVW

Row | Ki [nM] | pKi | Structure (SMILES)
1 | ≤ 1 |  | CC(=O)NCCC(CO)(C[C@@H](Cc1ccc(-c2cc(Cl)ccc2F)cc1)NC(=O)c1cnn[nH]1)C(=O)O (stereo partly drawn) [Example 18, (R)-2-(2-Acetylaminoethyl)-5-(5′-chloro-2′-fluorobiphenyl-4-yl)-2-hydroxymethyl-4-[(3H-[1,2,3]triazole-4-carbonyl)amino]pentanoic Acid]
2 |  | ≧9.0 | CCCC(CO)(C[C@@H](Cc1ccc(-c2cc(Cl)ccc2F)cc1)NC(=O)c1cnn[nH]1)C(=O)O (single isomer, unassigned) [Example 15b]
3 | 126 to 316 |  | CCC(C#N)(C[C@@H](Cc1ccc(-c2cc(Cl)ccc2F)cc1)NC(=O)c1cnn[nH]1)C(=O)O (single isomer, unassigned) [Example 23b]
4 | ≤ 1 |  | CC(C#N)(C[C@@H](Cc1ccc(-c2cc(Cl)ccc2F)cc1)NC(=O)c1cnn[nH]1)C(=O)O (single isomer, unassigned) [Example 12b]
5 | 1.26 to 3.16 |  | COC[C@](C)(C[C@@H](Cc1ccc(-c2cc(Cl)ccc2F)cc1)NC(=O)c1nc[nH]n1)C(=O)O [Example 8-7, (2S,4R)-5-(5′-Chloro-2′-fluorobiphenyl-4-yl)-2-methoxymethyl-2-methyl-4-[(1H-[1,2,4]triazole-3-carbonyl)amino]pentanoic acid]
6 | 1.26 to 3.16 |  | O=C(N[C@H](Cc1ccc(-c2cc(Cl)ccc2F)cc1)CC(CO)(CCO)C(=O)O)c1cnn[nH]1 (single isomer, unassigned) [Example 16a]
7 | 1.26 to 3.16 |  | NCCC(CO)(C[C@@H](Cc1ccc(-c2cc(Cl)ccc2F)cc1)NC(=O)c1cnn[nH]1)C(=O)O (stereo partly drawn) [Example 17, (R)-2-(2-Amino-ethyl)-5-(5′-chloro-2′-fluorobiphenyl-4-yl)-2-hydroxymethyl-4-[(3H-[1,2,3]triazole-4-carbonyl)amino]pentanoic Acid]
8 | ≤ 1 |  | CC(=O)N1CCC(C[C@@H](Cc2ccc(-c3cc(Cl)ccc3F)cc2)NC(=O)c2cnn[nH]2)(C(=O)O)C1 (single isomer, unassigned) [Example 22a]
9 | ≤ 1 |  | C[C@](C[C@@H](Cc1ccc(-c2cc(Cl)ccc2F)cc1)NC(=O)c1c[nH]nn1)(C(N)=O)C(=O)O [Example 5, (2S,4R)-2-Carbamoyl-5-(5′-chloro-2′-fluorobiphenyl-4-yl)-2-methyl-4-[(1H-[1,2,3]triazole-4-carbonyl)amino]pentanoic Acid]
10 | 1.26 to 3.16 |  | COC[C@](C)(C[C@@H](Cc1ccc(-c2cc(Cl)ccc2F)cc1)NC(=O)c1coc(C2CC2)n1)C(=O)O [Example 8-2, (2S,4R)-5-(5′-Chloro-2′-fluorobiphenyl-4-yl)-4-[(2-cyclopropyloxazole-4-carbonyl)amino]-2-methoxymethyl-2-methylpentanoic acid]
11 | 3.98 to 10 |  | CC(N)(C[C@@H](Cc1ccc(-c2cc(Cl)ccc2F)cc1)NC(=O)c1cnn[nH]1)C(=O)O (single isomer, unassigned) [Example 1a]
12 |  | ≧9.0 | CCC(CO)(C[C@@H](Cc1ccc(-c2cc(Cl)ccc2F)cc1)NC(=O)c1cnn[nH]1)C(=O)O (single isomer, unassigned) [Example 14b]
13 | 1.26 to 3.16 |  | COC[C@](C)(C[C@@H](Cc1ccc(-c2cc(Cl)ccc2F)cc1)NC(=O)c1cn(CCO)nn1)C(=O)O [Example 8-10, (2S,4R)-5-(5′-Chloro-2′-fluorobiphenyl-4-yl)-4-{[1-(2-hydroxyethyl)-1H-[1,2,3]triazole-4-carbonyl]amino}-2-methoxymethyl-2-methylpentanoic acid]
14 | ≤ 1 |  | C=CCC(CO)(C[C@@H](Cc1ccc(-c2cc(Cl)ccc2F)cc1)NC(=O)c1cnn[nH]1)C(=O)O (single isomer, unassigned) [Example 19a]
15 | ≤ 1 |  | COC[C@](C)(C[C@@H](Cc1ccc(-c2cc(Cl)ccc2F)cc1)NC(=O)c1ncco1)C(=O)O [Example 8-6, (2S,4R)-5-(5′-Chloro-2′-fluorobiphenyl-4-yl)-2-methoxymethyl-2-methyl-4-[(oxazole-2-carbonyl)amino]pentanoic acid]
16 | ≤ 1 |  | COC[C@](C)(C[C@@H](Cc1ccc(-c2cc(Cl)ccc2F)cc1)NC(=O)c1ncccn1)C(=O)O [Example 8-4, (2S,4R)-5-(5′-Chloro-2′-fluorobiphenyl-4-yl)-2-methoxymethyl-2-methyl-4-[(pyrimidine-2-carbonyl)amino]pentanoic acid]

Row | Ki [nM] | pKi | Structure (SMILES)
17 | ≤ 1 |  | COC[C@](C)(C[C@@H](Cc1ccc(-c2cc(Cl)ccc2F)cc1)NC(=O)c1noc(=O)[nH]1)C(=O)O [Example 7, (2S,4R)-5-(5′-Chloro-2′-fluorobiphenyl-4-yl)-2-methoxymethyl-2-methyl-4-[(5-oxo-4,5-dihydro-[1,2,4]oxadiazole-3-carbonyl)amino]pentanoic Acid]
18 |  | ≧9.0 | O=C(N[C@H](Cc1ccc(-c2cc(Cl)ccc2F)cc1)CC1(C(=O)O)CCOC1)c1cnn[nH]1 (single isomer, unassigned) [Example 20b]
19 | ≤ 1 |  | COC[C@](C)(C[C@@H](Cc1ccc(-c2cc(Cl)ccc2F)cc1)NC(=O)c1ccc(C(F)(F)F)cn1)C(=O)O [Example 8-5, (2S,4R)-5-(5′-Chloro-2′-fluorobiphenyl-4-yl)-2-methoxymethyl-2-methyl-4-[(5-trifluoromethylpyridine-2-carbonyl)amino]pentanoic acid]
20 | ≤ 1 |  | CCC(C#N)(C[C@@H](Cc1ccc(-c2cc(Cl)ccc2F)cc1)NC(=O)c1cnn[nH]1)C(=O)O (single isomer, unassigned) [Example 23a]
21 | 12.6 to 31.6 |  | O=C(N[C@H](Cc1ccc(-c2cc(Cl)ccc2F)cc1)CC(CO)(CCO)C(=O)O)c1cnn[nH]1 (single isomer, unassigned) [Example 16b]
22 | ≤ 1 |  | COC[C@](C)(C[C@@H](Cc1ccc(-c2cc(Cl)ccc2F)cc1)NC(=O)c1ncc(C)o1)C(=O)O [Example 8-1, (2S,4R)-5-(5′-Chloro-2′-fluorobiphenyl-4-yl)-2-methoxymethyl-2-methyl-4-[(5-methyloxazole-2-carbonyl)amino]pentanoic acid]
23 | ≤ 1 |  | C[C@@](CN)(C[C@@H](Cc1ccc(-c2cc(Cl)ccc2F)cc1)NC(=O)c1cnn[nH]1)C(=O)O [Example 2, (2S,4R)-2-Aminomethyl-5-(5′-chloro-2′-fluorobiphenyl-4-yl)-2-methyl-4-[(3H-[1,2,3]triazole-4-carbonyl)amino]pentanoic Acid]
24 | 1.26 to 3.16 |  | C[C@@](CN)(C[C@@H](Cc1ccc(-c2cc(Cl)ccc2F)cc1)NC(=O)c1ccn(C(F)F)n1)C(=O)O [Example 3, (2S,4R)-2-Aminomethyl-5-(5′-chloro-2′-fluorobiphenyl-4-yl)-4-[(1-difluoromethyl-1H-pyrazole-3-carbonyl)amino]-2-methylpentanoic Acid]
25 | ≤ 1 |  | CC(C[C@@H](Cc1ccc(-c2cc(Cl)ccc2F)cc1)NC(=O)c1c[nH]nn1)(C(=O)O)C(=O)O [Example 6, 2-{(R)-3-(5′-Chloro-2′-fluorobiphenyl-4-yl)-2-[(1H-[1,2,3]triazole-4-carbonyl)amino]propyl}-2-methylmalonic Acid]
26 | ≤ 1 |  | O=C(N[C@H](Cc1ccc(-c2cc(Cl)ccc2F)cc1)CC1(C(=O)O)CCNC1)c1cnn[nH]1 (single isomer, unassigned) [Example 21a]
27 | 1.26 to 3.16 |  | COC[C@](C)(C[C@@H](Cc1ccc(-c2cc(Cl)ccc2F)cc1)NC(=O)c1cn(OC)nn1)C(=O)O [Example 8-9, (2S,4R)-5-(5′-Chloro-2′-fluorobiphenyl-4-yl)-2-methoxymethyl-4-[(1-methoxy-1H-[1,2,3]triazole-4-carbonyl)amino]-2-methylpentanoic acid]
28 | 1.26 to 3.16 |  | COC[C@](C)(C[C@@H](Cc1ccc(-c2cc(Cl)ccc2F)cc1)NC(=O)c1ccc(Cl)cn1)C(=O)O [Example 8-3, (2S,4R)-5-(5′-Chloro-2′-fluorobiphenyl-4-yl)-4-[(5-chloropyridine-2-carbonyl)amino]-2-methoxymethyl-2-methylpentanoic acid]
29 | 1.26 to 3.16 |  | CCOC[C@](C)(C[C@@H](Cc1ccc(-c2cc(Cl)ccc2F)cc1)NC(=O)c1coc(C2CC2)n1)C(=O)O [Example 10, (2S,4R)-5-(5′-Chloro-2′-fluorobiphenyl-4-yl)-4-[(2-cyclopropyoxazole-4-carbonyl)amino]-2-ethoxymethyl-2-methylpentanoic Acid]
30 | 3.98 to 10 |  | CC(=O)c1cc(C(=O)N[C@H](Cc2ccc(-c3cc(Cl)ccc3F)cc2)C[C@@](C)(CN)C(=O)O)[nH]n1 [Example 4-1, (2S,4R)-4-[(5-Acetyl-2H-pyrazole-3-carbonyl)-amino]-2-aminomethyl-5-(5′-chloro-2′-fluorobiphenyl-4-yl)-2-methylpentanoic acid]
31 | 39.8 to 100 |  | CC(C#N)(C[C@@H](Cc1ccc(-c2cc(Cl)ccc2F)cc1)NC(=O)c1cnn[nH]1)C(=O)O (single isomer, unassigned) [Example 12a]
